The values that follow come from a flash point compilation (Sun et al. 2020).

Assay in data set [1]: not given
This is another data set of the same source.

Assay in data set [2]: not given
This is another data set of the same source.

Assay in data set [3]: not given
The source holds these as a separate data set.

Assay in data set [4]: not given
This is another data set of the same source.

`CC(=O)OCCC[Si](C)(Cl)Cl` [3-ACETOXYPROPYLMETHYLDICHLOROSILANE]: the flash point turned out to be 85.00 °C.
For `CO[Si](CCCOC(C)=O)(OC)OC` [3-ACETOXYPROPYLTRIMETHOXYSILANE], the flash point turned out to be 93.00 °C.
Same read-out and setting: the result for `CCO[Si](C)(C)CCCN` [3-AMINOPROPYLDIMETHYLETHOXYSILANE] reads 73.00 °C; that for `CCO[Si](CCCCN)(OCC)OCC` [4-AMINOBUTYLTRIETHOXYSILANE], 109.00 °C.
Still for that read-out and setting: the result for `CCO[Si](CCCCCCS(=O)(=O)N=[N+]=[N-])(OCC)OCC` [6-AZIDOSULFONYLHEXYLTRIETHOXYSILANE] reads 114.00 °C.
Same read-out and setting: the result for `CC(=O)OCC[Si](Cl)(Cl)Cl` [ACETOXYETHYLTRICHLOROSILANE] reads 82.00 °C; that for `CC(=O)OC[Si](C)(C)C` [ACETOXYMETHYLTRIMETHYLSILANE], 20.00 °C.
With `C=CC(=O)O[Si](C)(C)C` [ACRYLOXYTRIMETHYLSILANE], the flash point was found to be 26.00 °C.
Still for that read-out and setting: the result for `C=CC[Si](C)(C)N(C(C)C)C(C)C` [ALLYLDIMETHYL(DIISOPROPYLAMINO)SILANE] reads 62.00 °C.
Same read-out and setting: the same measure for `C=CC[SiH](C)C` [ALLYLDIMETHYLSILANE]: -20.00 °C.
For `C=C[CH2][Ge]([Cl])([Cl])[Cl]` [ALLYLTRICHLOROGERMANE], the flash point in data set [1] amounted to 55.00 °C.
Still for that read-out and setting: the result for `C=C[CH2][Ge]([CH2]C)([CH2]C)[CH2]C` [ALLYLTRIETHYLGERMANE] reads 48.00 °C.
With `C=CC[Si](O[Si](C)(C)C)(O[Si](C)(C)C)O[Si](C)(C)C` [ALLYLTRIS(TRIMETHYLSILOXY)SILANE], the flash point stood at 67.00 °C.
Still for that read-out and setting: the same measure for `C[Si](C)(C)CN` [AMINOMETHYLTRIMETHYLSILANE]: 9.00 °C.
In turn, `CO[Si](CCCNCCN)(OC)OC` [Aminoethylaminopropyltrimethoxysilane] had a flash point in data set [2] of 96 °C.
`C[SiH](C)Cc1ccccc1` [BENZYLDIMETHYLSILANE] displayed a flash point of 65.00 °C.
As for `C[Si](C)(C)N=C=N[Si](C)(C)C` [Bis(trimethylsilyl)carbodiimide], in data set [2], the flash point turned out to be 42 °C.
In turn, `[CH3][Ge]([CH3])([CH3])[CH](Cl)Cl` [DICHLOROMETHYLTRIMETHYLGERMANE] yielded a flash point in data set [1] of 33.00 °C.
Still for that read-out and setting: the result for `C[CH2][Ge]([Cl])([Cl])[CH2]C` [DIETHYLDICHLOROGERMANE] reads 52.00 °C.
Consider `C[N](C)[Ge]([CH3])([CH3])[CH3]` [DIMETHYLAMINOTRIMETHYLGERMANE], for which the flash point in data set [1] is -10.00 °C.
The same measure, in the same setting: the same measure for `CC[O][Ge]([CH3])([O]CC)[O]CC` [METHYLTRIETHOXYGERMANE]: 40.00 °C.
For the compound `CO[Si](C)(CCCNCCN)OC` [N-(2-AMINOETHYL)-3-AMINOPROPYLMETHYLDIMETHOXYSILANE], the flash point is 90.00 °C.
Still for that read-out and setting: the result for `C[Si](C)(C)CNCc1ccccc1` [N-BENZYLAMINOMETHYLTRIMETHYLSILANE] reads 116.00 °C.
The compound `CN(C(=O)C(F)(F)F)[Si](C)(C)C` [N-Methyl-N-trimethylsilyltrifluoroacetamide] displayed a flash point in data set [2] of 25 °C.
In data set [1], `CCC[CH2][Ge]([CH2]CCC)([CH2]CCC)[CH2]CCC` [TETRA-n-BUTYLGERMANE] gave a flash point of 90.00 °C.
On the same count and under the same terms, the same measure for `C=C[CH2][Ge]([CH2]C=C)([CH2]C=C)[CH2]C=C` [TETRAALLYLGERMANE]: 70.00 °C; for `CC[O][Ge]([O]CC)([O]CC)[O]CC` [TETRAETHOXYGERMANE]: 62.00 °C; for `CC(C)[O][Ge]([O]C(C)C)([O]C(C)C)[O]C(C)C` [TETRAISOPROPOXYGERMANE]: 68.00 °C.
For the compound `[CH3][Ge]([CH3])([CH3])[CH3]` [TETRAMETHYLGERMANE], the flash point in data set [1] is -19.00 °C.
On to `c1cc[c]([Sn]([c]2ccccc2)([c]2ccccc2)[c]2ccccc2)cc1` [TETRAPHENYLTIN], for which the flash point in data set [3] worked out at 231.00 °C.
Turning to `CCC[CH2][Ge]([Cl])([CH2]CCC)[CH2]CCC` [TRI-n-BUTYLCHLOROGERMANE], the flash point in data set [1] was 94.00 °C.
`CCC[CH2][Sn]([Cl])([CH2]CCC)[CH2]CCC` [TRI-n-BUTYLCHLOROTIN]: the flash point in data set [3] worked out at 120.00 °C.
As for `CCC[CH2][Sn]([CH2]CCC)([CH2]CCC)[O]CC` [TRI-n-BUTYLETHOXYTIN], in data set [3], the flash point is 104.00 °C.
For the compound `CCC[CH2][GeH]([CH2]CCC)[CH2]CCC` [TRI-n-BUTYLGERMANE], in data set [1], the flash point came out at 78.00 °C.
`CCC[CH2][Sn]([I])([CH2]CCC)[CH2]CCC` [TRI-n-BUTYLIODOTIN]: the flash point in data set [3] worked out at 113.00 °C.
Same read-out and setting: the same measure for `CCC[CH2][SnH]([CH2]CCC)[CH2]CCC` [TRI-n-BUTYLTIN HYDRIDE]: 40.00 °C.
Compound `[Cl][GeH]([Cl])[Cl]` [TRICHLOROGERMANE] returned a flash point in data set [1] of 12.00 °C.
Consider `C1CC[CH]([SnH]([CH]2CCCCC2)[CH]2CCCCC2)CC1` [TRICYCLOHEXYLTIN HYDRIDE], for which the flash point in data set [3] turned out to be 105.00 °C.
In data set [1], `C[CH2][Ge]([Cl])([CH2]C)[CH2]C` [TRIETHYLCHLOROGERMANE] registered a flash point of 38.00 °C.
The same measure, in the same setting: the same measure for `C[CH2][GeH]([CH2]C)[CH2]C` [TRIETHYLGERMANE]: 5.00 °C.
Still for that read-out and setting: the same measure for `C[CH](C)[Ge]([Cl])([CH](C)C)[CH](C)C` [TRIISOPROPYLCHLOROGERMANE]: 66.00 °C.
On the same count and under the same terms, the same measure for `[CH3][Ge]([CH3])([CH3])[Cl]` [TRIMETHYLCHLOROGERMANE]: 1.00 °C.
In the case of `[CH3][Sn]([CH3])([CH3])[Cl]` [TRIMETHYLCHLOROTIN], in data set [3], the flash point was 97.00 °C.
In the case of `CC[Si](CC)(CC)CC` [Tetraethylsilane], the flash point amounted to 32.00 °C in data set [4] and 26 °C in data set [2].
In data set [2], `C[Si](C)(C)OB(O[Si](C)(C)C)O[Si](C)(C)C` [Tris(trimethylsiloxy)boron] had a flash point of 42 °C.
Same read-out and setting: the result for `C=C[Si](C)(C)O[Si](C)(C)C` [Vinylpentamethyldisiloxane] reads 12 °C.
In data set [1], `CCC[CH2][Ge]([Cl])([Cl])[Cl]` [n-BUTYLTRICHLOROGERMANE] displayed a flash point of 82.00 °C.
With `CO[Si](OC)(OC)c1ccc(N)cc1` [p-AMINOPHENYLTRIMETHOXYSILANE], the flash point amounted to 180.00 °C.
As for `CCC[CH2][Sn]([CH2]CCC)([CH2]CCC)[C](C)(C)C` [t-BUTYLTRI n-BUTYLTIN], the flash point in data set [3] came to 102.00 °C.
